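1) Cells in 96-well plates. 2) Compound, 48 h, 5 concentrations. 3) Linear interpolation between surrounding doses. 4) Unreached endpoint = highest concentration. The concentration for 50% growth inhibition is given as GI50.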 Activity calls are given as the source filed them. Cut-off read from the data, not from the text of the source: active = GI50 up to about 1.1 µM and inactive = higher.

From ChEMBL document CHEMBL1201862, “PubChem BioAssay data set” (2004) come the findings set out here.

Test systems include 786-0; A498; CAKI-1; COLO 205; HCT-15; HOP-62; HOP-92; IGROV-1; K562; M14; NCI-H226; OVCAR-8; RXF 393; SK-OV-3; SW-620; TK-10; BT-549; Hs-578T; MCF7; MDA-N.
Common to all, as to experiment: growth of human tumour cells (NCI), 48 h

In the case of `CC(=O)OC1=C2CC3(C)OC(=O)CC(C)(C)C3=CC=C2C=C(C(C)C)C1=O` (stereo not drawn), the GI50 is 0.203 µM (active) in the experiment with 786-0; 1.57 µM (inactive) in the experiment on A498; 1.56 µM (inactive) with CAKI-1; 0.631 µM (active) in the experiment with COLO 205; 0.179 µM in the experiment with HCT-15; 11.4 µM (inactive) with HOP-62. The GI50 with HOP-92 is 0.207 µM (active); in the experiment with IGROV-1, 0.845 µM (active); in the experiment on K562, 0.307 µM (active); in the experiment on M14, 0.334 µM (active); with NCI-H226, 1.74 µM (inactive); with OVCAR-8 it was 0.288 µM (active). Further, the GI50 in the experiment with RXF 393 is 0.184 µM (active); with SK-OV-3, 2.09 µM (inactive); in the experiment on SW-620 it was 0.316 µM (active); in the experiment on TK-10 it was 1.21 µM (inactive).
For the compound `Cc1cc(Br)c(O)c(-c2cscn2)c1`, the GI50 in the experiment with 786-0 was 2.43 µM (inactive); in the experiment on A498, 23.7 µM (inactive); in the experiment on BT-549 it was 10.9 µM (inactive); in the experiment on CAKI-1, 24.2 µM (inactive); with COLO 205, 18 µM (inactive); with HCT-15, 5.57 µM. Besides, the GI50 in the experiment on HOP-62 is 22.5 µM (inactive); in the experiment on HOP-92 it was 19.5 µM (inactive); in the experiment with Hs-578T it was 19.3 µM (inactive); with IGROV-1, 22.9 µM (inactive); with K562, 7.64 µM (inactive); with M14 it was 23.6 µM (inactive). The GI50 in the experiment on OVCAR-8 is 10.9 µM (inactive); in the experiment with SK-OV-3 it was 54.6 µM (inactive); with SW-620 it was 12.3 µM (inactive); in the experiment with TK-10, 22.4 µM (inactive).
With `CC1=C(C(=O)NCc2ccccc2)C(c2ccccc2C)C(C(=O)NCc2ccccc2)=C(C)N1`, the GI50 in the experiment on 786-0 is 25.1 µM (inactive); in the experiment on A498, 44.3 µM (inactive); in the experiment with CAKI-1, 50.8 µM (inactive); in the experiment with COLO 205 it was 38.8 µM (inactive); with HCT-15, 17.7 µM; with HOP-62, 29.9 µM (inactive). Also, the GI50 is 39 µM (inactive) with HOP-92; 31.7 µM (inactive) with IGROV-1; 38.5 µM (inactive) with K562; 20.4 µM (inactive) with M14; 30.7 µM (inactive) in the experiment on NCI-H226; 17.9 µM (inactive) with OVCAR-8. Besides, the GI50 is 23.7 µM (inactive) in the experiment on RXF 393, 91.2 µM (inactive) with SK-OV-3, 38.8 µM (inactive) in the experiment on SW-620 and 41.7 µM (inactive) in the experiment with TK-10.
As to `O=C(NCCCCCCNC(=O)c1cccc2ccccc12)c1cccc2ccccc12`, the GI50 in the experiment with 786-0 was 23.7 µM (inactive); in the experiment with A498, 24.3 µM (inactive); in the experiment on CAKI-1, 21.3 µM (inactive); with COLO 205 it was 1.85 µM (inactive); in the experiment on HCT-15, more than 100 µM; with HOP-62, 20.5 µM (inactive). The GI50 in the experiment with HOP-92 was 7.96 µM (inactive); in the experiment on IGROV-1, 32.9 µM (inactive); in the experiment on K562, > 100 µM (inactive); in the experiment with M14, 46.8 µM (inactive); in the experiment with NCI-H226, 17.8 µM (inactive); in the experiment on OVCAR-8, 18.7 µM (inactive). In addition, the GI50 was 8.51 µM (inactive) in the experiment on RXF 393, 21.2 µM (inactive) with SK-OV-3, > 100 µM (inactive) in the experiment with SW-620 and 14.9 µM (inactive) in the experiment with TK-10.
In the case of `CC(C)(C)C(=O)C(CC(=O)c1ccccc1)C(=O)C(C)(C)C`, the GI50 in the experiment with 786-0 is > 100 µM (inactive); with A498 it was > 100 µM (inactive); in the experiment on CAKI-1, > 100 µM (inactive); in the experiment with COLO 205, > 100 µM (inactive); in the experiment with HCT-15 it was more than 100 µM; in the experiment with HOP-62 it was 99.1 µM (inactive). Further, the GI50 with HOP-92 is 44.7 µM (inactive); in the experiment on Hs-578T it was 77.3 µM (inactive); in the experiment with IGROV-1, > 100 µM (inactive); with K562, > 100 µM (inactive); in the experiment on M14, > 100 µM (inactive); in the experiment on MCF7, > 100 µM (inactive). For the same compound, the GI50 in the experiment on MDA-N, with NCI-H226, in the experiment with OVCAR-8, with SK-OV-3, in the experiment with SW-620 and with TK-10 was > 100 µM (inactive) throughout.
For the compound `CCc1ccccc1NC(=O)C(=O)CC(=O)c1sc(Nc2ccccc2)nc1C`, the GI50 in the experiment on 786-0 is > 100 µM (inactive); in the experiment with A498, > 100 µM (inactive); in the experiment with CAKI-1, 85.9 µM (inactive); in the experiment with COLO 205, > 100 µM (inactive); in the experiment on HCT-15, more than 100 µM; in the experiment with HOP-62, > 100 µM (inactive). Further, the GI50 was > 100 µM (inactive) with HOP-92; > 100 µM (inactive) with IGROV-1; 97.1 µM (inactive) with K562; > 100 µM (inactive) in the experiment on M14; > 100 µM (inactive) in the experiment on NCI-H226; > 100 µM (inactive) in the experiment on OVCAR-8. The GI50 in the experiment on RXF 393, with SK-OV-3, with SW-620 and in the experiment on TK-10 was > 100 µM (inactive) in each case.
For the compound `CC1(C)O[C@@H](CBr)C[C@H](C[C@H]2C[C@@H](O)C[C@@H](CCOCc3ccccc3)O2)O1`, the GI50 is 19.4 µM (inactive) in the experiment with 786-0; 23 µM (inactive) in the experiment with A498; 27.8 µM (inactive) in the experiment with CAKI-1; 17 µM (inactive) with COLO 205; 24.2 µM in the experiment on HCT-15; 20.1 µM (inactive) in the experiment on HOP-62. The GI50 in the experiment with HOP-92 was 25.5 µM (inactive); with Hs-578T it was 25.6 µM (inactive); in the experiment with IGROV-1, 19.8 µM (inactive); in the experiment on K562 it was 40.2 µM (inactive); with M14, 23.5 µM (inactive); with MCF7, 20 µM (inactive). Moreover, the GI50 with NCI-H226 was 17.5 µM (inactive); in the experiment on OVCAR-8, 21.5 µM (inactive); with SK-OV-3, 18.1 µM (inactive); in the experiment on SW-620, 31.6 µM (inactive); in the experiment on TK-10 it was 20.4 µM (inactive).
For the compound `Cc1cc2c(cc1Cl)SC(NS(=O)(=O)c1ccc(Cl)cc1)=NS2(=O)=O`, the GI50 in the experiment on 786-0 is > 100 µM (inactive); with A498 it was 30.4 µM (inactive); with BT-549, 42.7 µM (inactive); with CAKI-1 it was > 100 µM (inactive); with COLO 205, > 100 µM (inactive); with HCT-15, more than 100 µM. Besides, the GI50 is 98.6 µM (inactive) in the experiment on HOP-62; 16 µM (inactive) in the experiment on HOP-92; 41.5 µM (inactive) with Hs-578T; 89.5 µM (inactive) with IGROV-1; 41.9 µM (inactive) in the experiment with K562; 82.2 µM (inactive) in the experiment on M14. Further, the GI50 in the experiment with MCF7 was 56.8 µM (inactive); in the experiment with NCI-H226, 33.5 µM (inactive); with RXF 393, 13.6 µM (inactive); in the experiment with SK-OV-3, > 100 µM (inactive); in the experiment on SW-620, 41.6 µM (inactive); in the experiment with TK-10 it was 30.3 µM (inactive).
Turning to `Cc1ccc(C2=C(C#N)C(=O)N3CCN=C3S2)cc1`, the GI50 with 786-0 was > 100 µM (inactive); with BT-549, > 100 µM (inactive); with CAKI-1, > 100 µM (inactive); in the experiment on COLO 205 it was > 100 µM (inactive); in the experiment on HCT-15, more than 100 µM; in the experiment on HOP-92 it was > 100 µM (inactive). The GI50 in the experiment with IGROV-1 was > 100 µM (inactive); with K562 it was 58.2 µM (inactive); in the experiment on M14, > 100 µM (inactive); in the experiment on MCF7, > 100 µM (inactive); with MDA-N, > 100 µM (inactive); in the experiment with NCI-H226, > 100 µM (inactive). Further, the GI50 with OVCAR-8, in the experiment with RXF 393, in the experiment on SK-OV-3, in the experiment with SW-620 and in the experiment on TK-10 was > 100 µM (inactive) in each case.
Consider `CC(=O)Nc1cc(C(=O)Nc2cc(C(=O)Nc3cc(C(=O)Nc4cc(C(=O)Nc5cc(C(=O)NCCC(=O)NCCCN(C)C)n(C)c5)n(C)c4)n(C)c3)n(C)c2)n(C)c1`, for which the GI50 in the experiment with 786-0 is 63.7 µM (inactive); in the experiment with A498 it was > 100 µM (inactive); with CAKI-1 it was 19.5 µM (inactive); in the experiment on COLO 205, 46.8 µM (inactive); in the experiment on HCT-15, more than 100 µM; in the experiment on HOP-62, > 100 µM (inactive). Further, the GI50 is 33.5 µM (inactive) with HOP-92; 34.2 µM (inactive) with Hs-578T; > 100 µM (inactive) in the experiment on IGROV-1; 58.7 µM (inactive) with K562; > 100 µM (inactive) in the experiment with M14; 28.2 µM (inactive) in the experiment on MCF7. Further, the GI50 in the experiment with MDA-N is 34.9 µM (inactive); in the experiment with NCI-H226, > 100 µM (inactive); with OVCAR-8, > 100 µM (inactive); with RXF 393, > 100 µM (inactive); in the experiment with SK-OV-3 it was > 100 µM (inactive); in the experiment on SW-620, 69.5 µM (inactive). Further, in the experiment with TK-10, the GI50 is > 100 µM (inactive).
Turning to `CCc1nc2ccc(NCCN(C)C)c3c(=O)c4ccccc4n1c23`, the GI50 is 0.479 µM (active) with 786-0; 2.54 µM (inactive) with A498; 4.61 µM (inactive) in the experiment with BT-549; 1.56 µM (inactive) with CAKI-1; 0.307 µM (active) in the experiment with COLO 205; 0.456 µM in the experiment on HCT-15. In addition, the GI50 in the experiment on HOP-62 was 0.796 µM (active); in the experiment with HOP-92, 0.592 µM (active); in the experiment with Hs-578T, 1.78 µM (inactive); with IGROV-1 it was 0.265 µM (active); with K562, 0.468 µM (active); in the experiment with M14, 1.52 µM (inactive). Further, the GI50 with MCF7 is 2.11 µM (inactive); in the experiment with NCI-H226, 1.07 µM (active); with OVCAR-8, 0.515 µM (active); in the experiment on RXF 393, 1.67 µM (inactive); with SK-OV-3 it was 1.69 µM (inactive); with SW-620 it was 0.305 µM (active). In addition, the GI50 in the experiment on TK-10 was 2.31 µM (inactive).
Regarding `CC(C)C1COC(c2cccc(C3=N[C@@H](C(C)C)CO3)n2)=N1` (stereo partly drawn), the GI50 in the experiment on 786-0 was > 100 µM (inactive); with A498 it was > 100 µM (inactive); in the experiment on CAKI-1 it was > 100 µM (inactive); in the experiment on COLO 205 it was > 100 µM (inactive); in the experiment with HCT-15, more than 100 µM; in the experiment with HOP-62, > 100 µM (inactive). For the same compound, the GI50 with HOP-92, in the experiment on IGROV-1, with K562, with M14, in the experiment on NCI-H226 and in the experiment with RXF 393 was > 100 µM (inactive) each time. The GI50 with SK-OV-3, with SW-620 and in the experiment on TK-10 was > 100 µM (inactive) each time.
